Values of other authors in paper PMC12281572.
Where “and” joins values, the source holds several entries; their conditions need not be identical. Equal values may be shown once.

assay: FTIR, 4-fluorophenol as donor (the pK_BHX database, per the paper); conditions: CCl4; 25 C

| SMILES | pK_BHX (log10 Kf of the 1:1 H-bond complex with 4-fluorophenol, by FTIR) |
| --- | --- |
| Cc1c(C)c(C)c(C)c(C)c1C | 0.02 log units |
| CC(=O)c1cccc([N+](=O)[O-])c1 | 0.18 log units |
| O=[N+]([O-])c1cccc(N=C(Nc2ccccc2)c2ccccc2)c1 | 0.86 log units |
| C1=CCNCC1 | 2.16 log units |
| Nc1ncccn1 | 1.55 log units |
| CN1CN(C)C1=O | 2.46 log units |
| CCOC(C)=O | 1.07 log units |
| c1cnc2c(c1)ccc1cccnc12 | 3.1 log units |
| COc1cccc(CN)c1 | 1.94 log units |
| CC(=O)c1ccc(N(C)C)cc1 | 1.76 log units |
| CCCC[N+](CCCC)(CCCC)[N-]C#N | 3.24 log units |
| CCCSC | 0.16 log units |
| Brc1cncnc1 | 0.59 log units |
| NCc1cccc(Cl)c1 | 1.55 log units |
| CN1CCCNC1=S | 2.0 log units |
| CNC(C)=S | 1.14 log units |
| CCN(CC)CC | 1.98 log units |
| CCSCC | 0.25 log units |
| CC12CCC(CC1)C(C)(C)O2 | 1.38 log units |
| C1COC1 | 1.36 log units |
| CC(=Nc1cccc(Br)c1)Nc1ccccc1 | 1.24 log units |
| Cn1cccc1 | 0.23 log units |
| CCOC(=O)N(C)C | 1.83 log units |
| CCOC(=O)c1ccc(Br)cc1 | 0.78 log units |
| CC(=O)c1cccc(C(F)(F)F)c1 | 0.72 log units |

| SMILES | pK_BHX (log10 Kf of the 1:1 H-bond complex with 4-fluorophenol, by FTIR) |
| --- | --- |
| CN(C)C(=O)c1ccc(Br)cc1 | 2.07 log units |
| CCCCCCl | -0.38 log units |
| Fc1cccc(C2CCCN2)c1 (stereo not shown) | 1.65 log units |
| CN(C)C(=S)c1ccc(N)cc1 | 1.33 log units |
| O=c1c2ccccc2oc2ccccc12 | 1.36 log units |
| NCCCCCCN | 2.21 log units |
| C1C2CC3CC1CC(C2)C31OOC12C1CC3CC(C1)CC2C3 (stereo not shown) | 0.63 log units |
| CN1CCN(C)C1=S | 1.32 log units |
| CN(C)C=Nc1ccc(F)cc1 | 1.8 log units |
| CCC(CC)N(C(C)C)C(C)C | -0.34 log units |
| CCN(CC)c1ccc([N+](=O)[O-])cc1 | 0.9 log units |
| CC(=Nc1ccc(C)cc1)N(C)c1ccc(C)cc1 | 1.82 log units |
| COc1ccccc1C(=O)N(C)C | 2.48 log units |
| c1ccc(-c2ccccn2)nc1 | 1.15 log units |
| CCCCCI | -0.37 log units |
| CC(C)N | 2.2 log units |
| CN1CCCN(C)C1=O | 2.79 log units |
| CCCCCCCCSC | 0.17 log units |
| CN(C)C=Nc1ccc(N(C)C)cc1 | 2.32 log units |
| C1COCOC1 | 0.63 log units |
| CCOC(=O)c1ccccc1 | 0.94 log units |
| CN(C)C=NC(C)(C)C | 2.41 log units |
| CCN(C)Cc1cccc(C(F)(F)F)c1 | 1.03 log units |
| C1CSCS1 | -0.38 log units |
| CCN(C#N)CC | 1.63 log units |

| SMILES | pK_BHX (log10 Kf of the 1:1 H-bond complex with 4-fluorophenol, by FTIR) |
| --- | --- |
| CSC1CCCCC1 | 0.24 log units |
| CN(C)c1ccccn1 | 1.61 log units |
| CN1C(C)(C)CCCC1(C)C | 1.23 log units |
| COc1cccc(OC)c1 | -0.08 log units |
| CN=C(c1ccc([N+](=O)[O-])cc1)N(C)C | 1.99 log units |
| CCOC(=O)c1ccc([N+](=O)[O-])cc1 | 0.5 log units and 0.16 log units |
| C1CCOCC1 | 1.23 log units |
| CCN(CC)C(=S)N(C)C | 1.29 log units |
| CCN(C(C)C)C(C)C | 1.05 log units |
| COC(C)=O | 1.0 log units |
| CC(=Nc1ccc(Cl)cc1)Nc1ccc(Cl)cc1 | 1.07 log units |
| CC(C)c1cccc(C(C)C)c1N | 0.37 log units |
| COc1ccc(C(C)=O)cc1 | 1.33 log units |
| COC(=O)C1CCCCC1 | 1.06 log units |
| CC12CCC(CC1=S)C2(C)C (stereo not shown) | 0.34 log units |
| CCOC(=O)c1ccc(C(=O)OCC)cc1 | 0.76 log units |
| CCN(CC)C(=O)C(F)(F)F | 1.06 log units |
| NC12CC3CC(CC(C3)C1)C2 | 2.3 log units |
| CCOC(=O)c1ccc(OC)cc1 | 1.13 log units |
| Oc1ccc(F)cc1 | -0.12 log units |
| Cc1ccc(N=CN(C)C)cc1 | 2.07 log units |
| NCc1cccc(C(F)(F)F)c1 | 1.43 log units |
| CN(N)c1ccncc1 | 2.58 log units |
| CCOC(=O)C(C)(C)C | 1.04 log units |
| CCS | -0.16 log units |

| SMILES | pK_BHX (log10 Kf of the 1:1 H-bond complex with 4-fluorophenol, by FTIR) |
| --- | --- |
| CN(C)C=NCc1ccc(Cl)cc1 | 2.12 log units |
| CC(C)(C)Cl | -0.28 log units |
| Nc1cccc(F)c1 | 0.2 log units |
| C#CCCCC | -0.22 log units |
| CC(=O)N(c1ccccc1)c1ccccc1 | 1.94 log units |
| C=Cc1ccccn1 | 1.65 log units |
| CC(C)Cl | -0.3 log units |
| CC(C)(C)c1ccccc1 | -0.32 log units |
| CN(C)C=Nc1ccccc1Br | 1.37 log units |
| CCN(C)Cc1cccc(F)c1 | 1.14 log units |
| OCC(F)(F)F | -0.28 log units |
| CCCCO | 1.02 log units |
| O=C(C1CC1)C1CC1 | 1.36 log units |
| CN(C)C=NC(=O)N(C)C | 2.92 log units |
| NCc1cc(Cl)cc(Cl)c1 | 1.27 log units |
| CN1C(=O)CCC1=O | 1.06 log units |
| O=C(C12CC3CC(CC(C3)C1)C2)C12CC3CC(CC(C3)C1)C2 | 1.17 log units |
| CCCCS(=O)(=O)CCCC | 1.22 log units |
| CNC(=Nc1ccccc1)c1ccccc1 | 1.83 log units |
| CN(C)c1ccc(C#N)cc1 | 1.23 log units |
| O=CN(c1ccccc1)c1ccccc1 | 1.41 log units |
| FC1CCCCC1 | 0.09 log units |
| CCCCCCCCCCCCCCCCN | 2.26 log units |
| IC12CC3CC(CC(C3)C1)C2 | -0.19 log units |
| CC(=O)c1ccccc1Cl | 0.9 log units |
